The source of these data is patent US20190152992A1, “BENZODIOXANE DERIVATIVES AND THEIR PHARMACEUTICAL USE” (Orion Corporation, priority 2016, published 2019).

Structures can show the parent of a compound that is named as a salt. A value given as a limit tells only on which side of the number the result lay.

Experiment [1] has as its target T1, human alpha2A receptors (Homo sapiens, UniProt P08913).
T1 sequence (P08913 1-465): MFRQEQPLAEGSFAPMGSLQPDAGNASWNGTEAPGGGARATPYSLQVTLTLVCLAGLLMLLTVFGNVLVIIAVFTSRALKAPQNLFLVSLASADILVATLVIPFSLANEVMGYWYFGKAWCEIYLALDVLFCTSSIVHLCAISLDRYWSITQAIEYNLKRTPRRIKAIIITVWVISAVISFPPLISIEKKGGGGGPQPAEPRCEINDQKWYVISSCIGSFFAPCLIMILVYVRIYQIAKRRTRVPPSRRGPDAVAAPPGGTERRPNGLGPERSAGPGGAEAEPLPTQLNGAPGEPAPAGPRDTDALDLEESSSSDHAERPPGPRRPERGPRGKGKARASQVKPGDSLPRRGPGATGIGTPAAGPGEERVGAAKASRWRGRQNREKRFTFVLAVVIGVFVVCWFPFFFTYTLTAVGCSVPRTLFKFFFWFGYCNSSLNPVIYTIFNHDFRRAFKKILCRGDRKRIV
The experiment is described as follows: cell-based.

Experiment [2] addresses T2, human alpha2C receptors (Homo sapiens, UniProt P18825).
T2 sequence (P18825 1-462): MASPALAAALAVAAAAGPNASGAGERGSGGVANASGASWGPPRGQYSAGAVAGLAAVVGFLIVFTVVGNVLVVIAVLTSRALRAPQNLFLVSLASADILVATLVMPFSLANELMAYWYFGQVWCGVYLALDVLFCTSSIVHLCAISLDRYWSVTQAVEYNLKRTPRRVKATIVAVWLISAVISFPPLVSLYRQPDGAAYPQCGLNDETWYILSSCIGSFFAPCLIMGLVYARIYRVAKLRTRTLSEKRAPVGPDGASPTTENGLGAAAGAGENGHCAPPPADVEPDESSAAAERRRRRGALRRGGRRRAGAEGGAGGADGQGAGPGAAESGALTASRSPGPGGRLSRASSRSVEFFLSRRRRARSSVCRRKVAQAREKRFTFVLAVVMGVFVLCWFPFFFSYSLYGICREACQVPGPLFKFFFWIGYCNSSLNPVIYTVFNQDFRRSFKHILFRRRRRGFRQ
In words: Determination of alpha2C antagonistic activity in vitro (FLIPR calcium assay). The settings on record: for Kb: Alpha 2C Adrenaline Kb, Kb calculated from IC50 with the Cheng-Prusoff equation, adrenaline as agonist, CHO cells, human alpha2C.

On to `Cn1c(=O)n([C@H]2CCCN(C[C@H]3COc4ccccc4O3)C2)c2ccccc21` [example 147, 1-((S)-1-(((S)-2,3-Dihydrobenzo[b][1,4]dioxin-2-yl)methyl)piperidin-3-yl)-3-methyl-1H-benzo[d]imidazol-2(3H)-one], for which the half-inhibitory concentration (IC50) in experiment [1] was more than 10000 nM; in experiment [2], 228 nM. In addition, the Kb was more than 449 nM in experiment [1] and 22.9 nM in experiment [2].

Consider `O=C1c2cccc(F)c2CN1[C@H]1CCCN(C[C@H]2COc3ccccc3O2)C1` [example 57, 2-((S)-1-(((S)-2,3-Dihydrobenzo[b][1,4]dioxin-2-yl)methyl)piperidin-3-yl)-4-fluoroisoindolin-1-one hydrochloride], for which, in experiment [1], the half-inhibitory concentration (IC50) was more than 10000 nM and the Kb was more than 449 nM. Moreover, in experiment [2], the IC50 is 1.54 nM and the Kb is 0.15 nM.

Regarding `O=C1C(=O)N([C@H]2CCCN(C[C@H]3COc4ccccc4O3)C2)C(=O)N1C1CCCC1` [example 127, 1-Cyclopentyl-3-((S)-1-(((S)-2,3-dihydrobenzo[b][1,4]dioxin-2-yl)methyl)piperidin-3-yl)imidazolidine-2,4,5-trione], in experiment [1], the midpoint of inhibition, the IC50, lay at 8670 nM and the Kb came to 389 nM. Also, in experiment [2], the IC50 worked out at 0.027 nM and the Kb is 0.003 nM.

In experiment [1], `CN(C)CCN1C(=O)C(=O)N([C@H]2CCCN(C[C@H]3COc4ccccc4O3)C2)C1=O` [example 135, 1-((S)-1-(((S)-2,3-Dihydrobenzo[b][1,4]dioxin-2-yl)methyl)-piperidin-3-yl)-3-(2-(dimethylamino)ethyl)imidazolidine-2,4,5-trione] displayed an IC50 of more than 10000 nM and a Kb of more than 449 nM. In addition, in experiment [2], the IC50 is 444 nM and the Kb is 44.7 nM.

In experiment [1], `O=C1c2cccnc2C(=O)N1[C@H]1CCCN(C[C@H]2COc3ccccc3O2)C1` [example 75, 6-((S)-1-(((S)-2,3-Dihydrobenzo[b][1,4]dioxin-2-yl)methyl)piperidin-3-yl)-5H-pyrrolo[3,4-b]pyridine-5,7(6H)-dione] registered a concentration for half-maximal inhibition (IC50) of more than 10000 nM and a Kb of more than 449 nM. For the same compound, in experiment [2], the IC50 is 0.95 nM and the Kb is 0.097 nM.

In experiment [1], `CC(C)c1nc2ccc(F)cc2n1[C@H]1CCCN(C[C@H]2COc3ccccc3O2)C1` [example 85, 1-((S)-1-(((S)-2,3-Dihydrobenzo[b][1,4]dioxin-2-yl)methyl)piperidin-3-yl)-6-fluoro-2-isopropyl-1H-benzo[d]imidazole] yielded a concentration for half-maximal inhibition (IC50) of more than 10000 nM and a Kb of more than 449 nM. In experiment [2], the half-inhibitory concentration (IC50) came to 1260 nM and the Kb was 127 nM.

In experiment [1], `Clc1ccc2c(c1)ncn2[C@H]1CCCN(C[C@H]2COc3ccccc3O2)C1` [example 91, 5-Chloro-1-((S)-1-(((S)-2,3-dihydrobenzo[b][1,4]dioxin-2-yl)methyl)piperidin-3-yl)-1H-benzo[d]imidazole] registered a half-inhibitory concentration (IC50) of more than 10000 nM and a Kb of more than 449 nM. Further, in experiment [2], the half-maximal inhibitory concentration (IC50) is less than 0.1 nM and the Kb was less than 0.01 nM.

With `Fc1ccc2c(c1)ncn2[C@H]1CCCN(C[C@H]2COc3ccccc3O2)C1` [example 87, 1-((S)-1-(((S)-2,3-Dihydrobenzo[b][1,4]dioxin-2-yl)methyl)piperidin-3-yl)-5-fluoro-1H-benzo[d]imidazole], the half-inhibitory concentration (IC50) in experiment [1] is more than 10000 nM; in experiment [2] it was less than 0.1 nM. For the same compound, the Kb was more than 449 nM in experiment [1] and less than 0.01 nM in experiment [2].

Turning to `O=C1Cc2ccccc2N1[C@H]1CCCN(C[C@H]2COc3ccccc3O2)C1` [example 26, 1-((S)-1-(((S)-2,3-Dihydrobenzo[b][1,4]dioxin-2-yl)methyl)piperidin-3-yl)indolin-2-one], the values for the half-maximal inhibitory concentration (IC50) in experiment [1] and in experiment [2] were more than 10000 nM and 27.9 nM, respectively. Also, the Kb in experiment [1] is more than 449 nM; in experiment [2], 2.81 nM.

Take `CC(C)(C)N1C(=O)C(=O)N([C@H]2CCCN(C[C@H]3COc4ccccc4O3)C2)C1=O` [example 134, 1-tert-Butyl-3-((S)-1-(((S)-2,3-dihydrobenzo[b][1,4]dioxin-2-yl)methyl)piperidin-3-yl)imidazolidine-2,4,5-trione]: in experiment [1], the IC50 is more than 10000 nM and the Kb is more than 449 nM. In addition, in experiment [2], the IC50 worked out at 0.796 nM and the Kb is 0.08 nM.

As to `O=C1[C@H]2CCCC[C@H]2C(=O)N1[C@H]1CCCN(C[C@H]2COc3ccccc3O2)C1` [example 93, (3aR,7aS)-2-((S)-1-(((S)-2,3-Dihydrobenzo[b][1,4]dioxin-2-yl)methyl)piperidin-3-yl)hexahydro-1H-isoindole-1,3(2H)-dione hydrochloride], in experiment [1], the IC50 was more than 10000 nM and the Kb is more than 449 nM. In addition, in experiment [2], the half-inhibitory concentration (IC50) turned out to be 0.091 nM and the Kb is 0.009 nM.

Turning to `O=C1c2ccc(F)c(F)c2CN1[C@H]1CCCN(C[C@H]2COc3ccccc3O2)C1` [example 56, 2-((S)-1-(((S)-2,3-Dihydrobenzo[b][1,4]dioxin-2-yl)methyl)piperidin-3-yl)-4,5-difluoroisoindolin-1-one hydrochloride], in experiment [1], the IC50 was more than 10000 nM and the Kb is more than 449 nM. For the same compound, in experiment [2], the IC50 is 0.519 nM and the Kb is 0.052 nM.

In experiment [1], `CN1C(=O)C(=O)N([C@H]2CCCN(C[C@H]3COc4ccccc4O3)C2)C1=O` [example 138, 1-((S)-1-(((S)-2,3-Dihydrobenzo[b][1,4]dioxin-2-yl)methyl)piperidin-3-yl)-3-methylimidazolidine-2,4,5-trione] showed an IC50 of more than 10000 nM and a Kb of more than 449 nM. In experiment [2], the IC50 was found to be 4.35 nM and the Kb was 0.438 nM.

In the case of `CSc1ncc2c(n1)C(=O)N([C@H]1CCCN(C[C@H]3COc4ccccc4O3)C1)C2` [example 12, 6-((S)-1-(((S)-2,3-Dihydrobenzo[b][1,4]dioxin-2-yl)methyl)piperidin-3-yl)-2-(methylthio)-5H-pyrrolo[3,4-d]pyrimidin-7(6H)-one], the figures for the IC50 in experiment [1] and in experiment [2] were more than 10000 nM and 509 nM, respectively. The values for the Kb in experiment [1] and in experiment [2] were more than 449 nM and 51.2 nM, respectively.

On to `C[C@H](c1ccccc1)N1C(=O)C(=O)N([C@H]2CCCN(C[C@H]3COc4ccccc4O3)C2)C1=O` [example 128, 1-((S)-1-(((S)-2,3-Dihydrobenzo[b][1,4]dioxin-2-yl)methyl)-piperidin-3-yl)-3-((R)-1-phenylethyl)imidazolidine-2,4,5-trione], for which the values for the half-inhibitory concentration (IC50) in experiment [1] and in experiment [2] were 8890 nM and 1.19 nM, respectively. Also, the Kb was 399 nM in experiment [1] and 0.119 nM in experiment [2].

As for `O=C1CN(C2COC2)C(=O)N1[C@H]1CCCN(C[C@H]2COc3ccccc3O2)C1` [example 120, 3-((S)-1-(((S)-2,3-Dihydrobenzo[b][1,4]dioxin-2-yl)methyl)-piperidin-3-yl)-1-(oxetan-3-yl)imidazolidine-2,4-dione], in experiment [1], the IC50 is more than 10000 nM and the Kb is more than 449 nM. Moreover, in experiment [2], the IC50 was determined as 132 nM and the Kb was 13.3 nM.

With `CCc1nc2ccc(F)cc2n1[C@H]1CCCN(C[C@H]2COc3ccccc3O2)C1` [example 84, 1-((S)-1-(((S)-2,3-Dihydrobenzo[b][1,4]dioxin-2-yl)methyl)piperidin-3-yl)-2-ethyl-6-fluoro-1H-benzo[d]imidazole], in experiment [1], the half-maximal inhibitory concentration (IC50) worked out at 4330 nM and the Kb was 195 nM. In experiment [2], the IC50 was less than 0.1 nM and the Kb was less than 0.01 nM.

For `O=C1CN(C2CCCC2)C(=O)N1[C@H]1CCCN(C[C@H]2COc3ccccc3O2)C1` [example 106, 1-Cyclopentyl-3-((S)-1-(((S)-2,3-dihydrobenzo[b][1,4]dioxin-2-yl)methyl)piperidin-3-yl)imidazolidine-2,4-dione], in experiment [1], the IC50 was more than 10000 nM and the Kb is more than 449 nM. Besides, in experiment [2], the IC50 is 0.1 nM and the Kb was 0.01 nM.

In experiment [1], `COc1cc2c(cc1OC)C(=O)N([C@H]1CCCN(C[C@H]3COc4ccccc4O3)C1)C2` [example 68, 2-((S)-1-(((S)-2,3-Dihydrobenzo[b][1,4]dioxin-2-yl)methyl)piperidin-3-yl)-5,6-dimethoxyisoindolin-1-one] had a concentration for half-maximal inhibition (IC50) of more than 10000 nM and a Kb of more than 449 nM. Besides, in experiment [2], the IC50 is 2.79 nM and the Kb was 0.282 nM.

On to `CC(C)CN1CC(=O)N([C@H]2CCCN(C[C@H]3COc4ccccc4O3)C2)C1=O` [example 107, 3-((S)-1-(((S)-2,3-Dihydrobenzo[b][1,4]dioxin-2-yl)methyl)piperidin-3-yl)-1-isobutylimidazolidine-2,4-dione], for which the 50% inhibitory concentration (IC50) in experiment [1] is more than 10000 nM; in experiment [2] it was 0.284 nM. Moreover, the figures for the Kb in experiment [1] and in experiment [2] were more than 449 nM and 0.029 nM, respectively.

One may read the IC50 as the point on the concentration scale where inhibition reaches its midpoint.
